According to patent US4100346A, “Certain 7(o-amino-methyl- or methylaminomethylphenyl- or cyclohexadienyl- or thienylacetamide)-3[1-carboxymethyl-(or ethyl- or propyl-)-tetrazol-5-ylthiomethyl]-3-cephem-4-carboxylic acids” (Bristol-Myers Company, priority 1976, dated 1978):
Values after ≈ are worked out from the molar mass of the structure shown. Where two headings read alike, the source gives them in different places.

How the values were obtained:
Pasteurella multocida = experiment: Growth inhibitory activity, antibiotic dilution technique; conditions: read-out: Minimum inhibitory concentration
Proteus mirabilis = experiment: Effect of inoculum size on susceptibility of Enterobacteriaceae
Enterobacter aerogenes = experiment: as above; conditions: Klebsiella aerogenes, read-out: Minimum Inhibitory Concentration, Enterobacter aerogenes strain 1
Staphylococcus Aureus = experiment: Effect of inoculum size on susceptibility of Staphylococcus aureus; type: cell-based; conditions: for MICB /MICA: MIC at 10^6 over MIC at 10^2 organisms; for MIC: Staphylococcus aureus, read-out: Minimum inhibitory concentration
Proteus rettgeri = experiment: Effect of inoculum size on susceptibility of Enterobacteriaceae; conditions: Providencia rettgeri
Escherichia coli = experiment: as above
[1] = test system: β-lactamase Class IV Type b, Klebsiella pneumoniae 1169; type: biochemical
Experimental: (§1) Miscellaneous. Methods for determining bactericidal activity and susceptibility to cell-free β-lactamase were those previously used; Leitner et al., BL-S640, A Cephalosporin With a Broad Spectrum of Antibacterial Activity: Properties in vitro, Antimicrob. Agents Chemother.
(§2) Susceptibility to β-lactamase. Susceptibility to enzymic hydrolysis was assessed by determining relative rates of hydrolysis by cell-free preparations of various β-lactamases (Table 6).

[2] = target: β-lactamase Class I Type b, Escherichia coli 719 (Escherichia coli, UniProt P00811); type: biochemical
Experimental: as §1, §2

[3] = test system: β-lactamase Class IV Type a, Klebsiella pneumoniae 53; type: biochemical
Experimental: as §1, §2

[4] = target: T1, β-lactamase Class III Type a, Escherichia coli TEM (Escherichia coli, UniProt P62593); type: biochemical
T1 construct: cell-free preparations of various β-lactamases; endogenous in cells; host or cells: Escherichia coli strain TEM
Experimental: as §1, §2

[5] = target: β-lactamase Class I Type a, Enterobacter cloacae 214 (Enterobacter cloacae, UniProt P05364); type: biochemical
Experimental: as §1, §2

[6] = test system: β-lactamase Class II Type a, Proteus mirabilis 1266; type: biochemical
Experimental: as §1, §2

Neisseria gonorrhoeae = experiment: Growth inhibitory activity, antibiotic dilution technique
[7] = Antibiotic concentration in blood after intramuscular injection; conditions: mouse, im
Listeria monocytogenes = experiment: Growth inhibitory activity, antibiotic dilution technique; conditions: read-out: Minimum inhibitory concentration
Bacteroides Fragilis = experiment: Growth inhibitory activity, antibiotic dilution technique (obligate anaerobes); type: cell-based; conditions: 3 strains, geometric mean when applicable, read-out: Minimum inhibitory concentration
Experimental: Antibiotic spectrum. […] Procedures were as follows:
c. Obligate anaerobes. The assay was performed on solid medium, consisting of Brain Heart Infusion Broth (BBL) supplemented with 5% defibrinated sheep blood and 1% Ionagar (Colab). […] The plates were incubated at 37° C. for 48 hours under the oxygen-free conditions attained with a Gas-Pak (BBL) Brewer jar system.

Citrobacter sp. = experiment: Growth inhibitory activity, antibiotic dilution technique
Erwinia sp. = experiment: as above; conditions: read-out: Minimum inhibitory concentration
Klebsiella pneumoniae = experiment: Effect of inoculum size on susceptibility of Enterobacteriaceae
Enterobacter cloacae = experiment: as above
Edwardsiella tarda = experiment: Growth inhibitory activity, antibiotic dilution technique; conditions: read-out: Minimum inhibitory concentration

Chain of β-lactamase Class I Type a, Enterobacter cloacae 214 (P05364 21-381): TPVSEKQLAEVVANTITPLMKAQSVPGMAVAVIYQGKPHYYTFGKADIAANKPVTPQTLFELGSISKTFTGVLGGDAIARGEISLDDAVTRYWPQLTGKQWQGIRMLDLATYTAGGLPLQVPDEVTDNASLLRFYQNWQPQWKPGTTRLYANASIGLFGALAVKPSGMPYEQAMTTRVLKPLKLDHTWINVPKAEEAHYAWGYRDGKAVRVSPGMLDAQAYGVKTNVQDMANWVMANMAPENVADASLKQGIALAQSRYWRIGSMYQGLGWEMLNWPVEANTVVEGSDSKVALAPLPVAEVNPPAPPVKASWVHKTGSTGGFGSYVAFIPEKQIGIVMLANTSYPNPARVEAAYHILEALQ
Chain of β-lactamase Class I Type b, Escherichia coli 719 (P00811 20-377): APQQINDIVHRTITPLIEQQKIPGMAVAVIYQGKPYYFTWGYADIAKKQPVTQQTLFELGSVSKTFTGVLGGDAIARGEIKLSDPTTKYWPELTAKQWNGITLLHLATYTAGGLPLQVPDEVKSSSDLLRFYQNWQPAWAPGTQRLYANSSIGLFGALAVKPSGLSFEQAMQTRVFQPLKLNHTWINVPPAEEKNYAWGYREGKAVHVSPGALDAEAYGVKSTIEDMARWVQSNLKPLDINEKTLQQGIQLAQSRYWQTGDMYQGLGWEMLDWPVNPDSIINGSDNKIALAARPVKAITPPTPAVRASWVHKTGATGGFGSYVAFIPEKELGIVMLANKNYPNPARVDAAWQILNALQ
T1 sequence (P62593 24-286 limits assumed): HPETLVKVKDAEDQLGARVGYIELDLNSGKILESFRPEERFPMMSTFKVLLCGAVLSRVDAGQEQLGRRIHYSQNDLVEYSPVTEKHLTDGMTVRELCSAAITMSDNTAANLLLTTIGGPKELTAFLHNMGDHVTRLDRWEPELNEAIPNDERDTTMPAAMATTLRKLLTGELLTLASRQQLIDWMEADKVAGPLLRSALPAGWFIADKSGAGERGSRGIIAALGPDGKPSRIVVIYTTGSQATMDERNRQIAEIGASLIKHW

NCc1ccccc1CC(=O)N[C@@H]1C(=O)N2C(C(=O)O)=C(CSc3nnnn3CC(=O)O)CS[C@H]12 [Example 1]
MIC (Pasteurella multocida): 0.25 µg/mL (≈ 0.481 µM) | MIC (Proteus mirabilis; read-out: Minimum Inhibitory Concentration, Proteus mirabilis strain 1, A, Inoculum of 10^2 organisms): 0.5 µg/mL (≈ 0.962 µM) | MIC (Proteus mirabilis; read-out: Minimum Inhibitory Concentration, Proteus mirabilis strain 1, B, Inoculum of 10^6 organisms): 2 µg/mL (≈ 3.85 µM) | MIC (Proteus mirabilis; read-out: Minimum Inhibitory Concentration, Proteus mirabilis strain 2, A, Inoculum of 10^2 organisms): 0.5 µg/mL (≈ 0.962 µM) | MIC (Proteus mirabilis; read-out: Minimum Inhibitory Concentration, Proteus mirabilis strain 2, B, Inoculum of 10^6 organisms): 4 µg/mL (≈ 7.7 µM) | MIC (Proteus mirabilis; read-out: Minimum Inhibitory Concentration, Proteus mirabilis strain 3, A, Inoculum of 10^2 organisms): 0.5 µg/mL (≈ 0.962 µM) | MIC (Proteus mirabilis; read-out: Minimum Inhibitory Concentration, Proteus mirabilis strain 3, B, Inoculum of 10^6 organisms): 2 µg/mL (≈ 3.85 µM) | MIC (Proteus mirabilis; read-out: Minimum Inhibitory Concentration, Proteus mirabilis strain 4, A, Inoculum of 10^2 organisms): 0.5 µg/mL (≈ 0.962 µM) | MIC (Proteus mirabilis; read-out: Minimum Inhibitory Concentration, Proteus mirabilis strain 4, B, Inoculum of 10^6 organisms): 2 µg/mL (≈ 3.85 µM) | MIC (Proteus mirabilis; read-out: Minimum Inhibitory Concentration, Proteus mirabilis strain 5, A, Inoculum of 10^2 organisms): 0.5 µg/mL (≈ 0.962 µM) | MIC (Proteus mirabilis; read-out: Minimum Inhibitory Concentration, Proteus mirabilis strain 5, B, Inoculum of 10^6 organisms): 4 µg/mL (≈ 7.7 µM) | MIC (Enterobacter aerogenes; A, Inoculum of 10^2 organisms): 1 µg/mL (≈ 1.92 µM) | MIC (Enterobacter aerogenes; B, Inoculum of 10^6 organisms): > 250 µg/mL | MICB /MICA (Staphylococcus Aureus; Lacking penicillinase, 3 strains): 1.6 | MICB /MICA (Staphylococcus Aureus; Penicillinase producer, 26 strains): 1.5 | MIC (Staphylococcus Aureus; Lacking penicillinase, 3 strains, B, inoculum of 10^6 organisms, geometric means): 2.5 µg/mL (≈ 4.81 µM) | MIC (Staphylococcus Aureus; Penicillinase producer, 26 strains, A, Inoculum of 10^2 organisms, geometric means): 3.8 µg/mL (≈ 7.31 µM) | MIC (Staphylococcus Aureus; Penicillinase producer, 26 strains, B, inoculum of 10^6 organisms, geometric means): 5.7 µg/mL (≈ 11 µM) | MIC (Staphylococcus Aureus): 1.6 µg/mL (≈ 3.08 µM) | effect of cell concentration on growth inhibitory activity (Staphylococcus Aureus; penicillinase-producing strains): slightly | MIC (Proteus rettgeri; read-out: Minimum Inhibitory Concentration, Proteus rettgeri strain 1, A, Inoculum of 10^2 organisms): 0.13 µg/mL (≈ 0.25 µM) | MIC (Proteus rettgeri; read-out: Minimum Inhibitory Concentration, Proteus rettgeri strain 1, B, Inoculum of 10^6 organisms): 125 µg/mL (≈ 241 µM) | MIC (Proteus rettgeri; read-out: Minimum Inhibitory Concentration, Proteus rettgeri strain 2, A, Inoculum of 10^2 organisms): 0.13 µg/mL (≈ 0.25 µM) | MIC (Proteus rettgeri; read-out: Minimum Inhibitory Concentration, Proteus rettgeri strain 2, B, Inoculum of 10^6 organisms): 63 µg/mL (≈ 121 µM) | MIC (Proteus rettgeri; read-out: Minimum Inhibitory Concentration, Proteus rettgeri strain 3, A, Inoculum of 10^2 organisms): 0.25 µg/mL (≈ 0.481 µM) | MIC (Proteus rettgeri; read-out: Minimum Inhibitory Concentration, Proteus rettgeri strain 3, B, Inoculum of 10^6 organisms): > 250 µg/mL | MIC (Escherichia coli; read-out: Minimum Inhibitory Concentration, Escherichia coli strain 1, A, Inoculum of 10^2 organisms): 0.5 µg/mL (≈ 0.962 µM) | MIC (Escherichia coli; read-out: Minimum Inhibitory Concentration, Escherichia coli strain 1, B, Inoculum of 10^6 organisms): 2 µg/mL (≈ 3.85 µM) | MIC (Escherichia coli; read-out: Minimum Inhibitory Concentration, Escherichia coli strain 2, A, Inoculum of 10^2 organisms): 4 µg/mL (≈ 7.7 µM) | MIC (Escherichia coli; read-out: Minimum Inhibitory Concentration, Escherichia coli strain 2, B, Inoculum of 10^6 organisms): 32 µg/mL (≈ 61.6 µM) | MIC (Escherichia coli; read-out: Minimum Inhibitory Concentration, Escherichia coli strain 3, A, Inoculum of 10^2 organisms): 0.25 µg/mL (≈ 0.481 µM) | MIC (Escherichia coli; read-out: Minimum Inhibitory Concentration, Escherichia coli strain 3, B, Inoculum of 10^6 organisms): 1 µg/mL (≈ 1.92 µM) | MIC (Escherichia coli; read-out: Minimum Inhibitory Concentration, Escherichia coli strain 4, A, Inoculum of 10^2 organisms): 0.5 µg/mL (≈ 0.962 µM) | MIC (Escherichia coli; read-out: Minimum Inhibitory Concentration, Escherichia coli strain 4, B, Inoculum of 10^6 organisms): 2 µg/mL (≈ 3.85 µM) | MIC (Escherichia coli; read-out: Minimum Inhibitory Concentration, Escherichia coli strain 5, A, Inoculum of 10^2 organisms): 1 µg/mL (≈ 1.92 µM) | MIC (Escherichia coli; read-out: Minimum Inhibitory Concentration, Escherichia coli strain 5, B, Inoculum of 10^6 organisms): 2 µg/mL (≈ 3.85 µM) | MIC (Escherichia coli; read-out: Minimum Inhibitory Concentration, Escherichia coli strain 6, A, Inoculum of 10^2 organisms): 0.5 µg/mL (≈ 0.962 µM) | MIC (Escherichia coli; read-out: Minimum Inhibitory Concentration, Escherichia coli strain 6, B, Inoculum of 10^6 organisms): 2 µg/mL (≈ 3.85 µM) | MIC (Escherichia coli; read-out: Minimum Inhibitory Concentration, Escherichia coli strain 7, A, Inoculum of 10^2 organisms): 0.25 µg/mL (≈ 0.481 µM) | MIC (Escherichia coli; read-out: Minimum Inhibitory Concentration, Escherichia coli strain 7, B, Inoculum of 10^6 organisms): 2 µg/mL (≈ 3.85 µM) | Relative Rate of Hydrolysis (benzylpenicillin = 100) [1]: 30 | Relative Rate of Hydrolysis (benzylpenicillin = 100) [2]: 190 | Relative Rate of Hydrolysis (benzylpenicillin = 100) [3]: 6 | Relative Rate of Hydrolysis (benzylpenicillin = 100) [4]: 2 | Relative Rate of Hydrolysis (benzylpenicillin = 100) [5]: 1100 | Relative Rate of Hydrolysis (benzylpenicillin = 100) [6]: < 1 | susceptibility of Neisseria gonorrhoeae (Neisseria gonorrhoeae): equally susceptible | Tmax [7]: 15 min | half-life [7]: 33 min | Cmax ([7]; 20 mg/kg): 36000 ng/mL | MIC (Listeria monocytogenes): 10.8 µg/mL (≈ 20.8 µM) | MIC (Bacteroides Fragilis): 100 µg/mL (≈ 192 µM) | MIC (Citrobacter sp.; read-out: Minimum inhibitory concentration): 1 µg/mL (≈ 1.92 µM) | MIC (Citrobacter sp.; read-out: Minimum inhibitory concentration, Citrobacter sp., 1 strain): 125 µg/mL (≈ 241 µM) | MIC (Erwinia sp.): 0.66 µg/mL (≈ 1.27 µM) | MIC (Klebsiella pneumoniae; read-out: Minimum Inhibitory Concentration, Klebsiella pneumoniae strain 1, A, Inoculum of 10^2 organisms): 0.5 µg/mL (≈ 0.962 µM) | MIC (Klebsiella pneumoniae; read-out: Minimum Inhibitory Concentration, Klebsiella pneumoniae strain 1, B, Inoculum of 10^6 organisms): 1 µg/mL (≈ 1.92 µM) | MIC (Klebsiella pneumoniae; read-out: Minimum Inhibitory Concentration, Klebsiella pneumoniae strain 2, A, Inoculum of 10^2 organisms): 0.25 µg/mL (≈ 0.481 µM) | MIC (Klebsiella pneumoniae; read-out: Minimum Inhibitory Concentration, Klebsiella pneumoniae strain 2, B, Inoculum of 10^6 organisms): 2 µg/mL (≈ 3.85 µM) | MIC (Klebsiella pneumoniae; read-out: Minimum Inhibitory Concentration, Klebsiella pneumoniae strain 3, A, Inoculum of 10^2 organisms): 0.5 µg/mL (≈ 0.962 µM) | MIC (Klebsiella pneumoniae; read-out: Minimum Inhibitory Concentration, Klebsiella pneumoniae strain 3, B, Inoculum of 10^6 organisms): 4 µg/mL (≈ 7.7 µM) | MIC (Klebsiella pneumoniae; read-out: Minimum Inhibitory Concentration, Klebsiella pneumoniae strain 4, A, Inoculum of 10^2 organisms): 0.5 µg/mL (≈ 0.962 µM) | MIC (Klebsiella pneumoniae; read-out: Minimum Inhibitory Concentration, Klebsiella pneumoniae strain 4, B, Inoculum of 10^6 organisms): 4 µg/mL (≈ 7.7 µM) | MIC (Klebsiella pneumoniae; read-out: Minimum Inhibitory Concentration, Klebsiella pneumoniae strain 5, A, Inoculum of 10^2 organisms): 0.5 µg/mL (≈ 0.962 µM) | MIC (Klebsiella pneumoniae; read-out: Minimum Inhibitory Concentration, Klebsiella pneumoniae strain 5, B, Inoculum of 10^6 organisms): 2 µg/mL (≈ 3.85 µM) | MIC (Klebsiella pneumoniae; read-out: Minimum Inhibitory Concentration, Klebsiella pneumoniae strain 6, A, Inoculum of 10^2 organisms): 0.25 µg/mL (≈ 0.481 µM) | MIC (Klebsiella pneumoniae; read-out: Minimum Inhibitory Concentration, Klebsiella pneumoniae strain 6, B, Inoculum of 10^6 organisms): 4 µg/mL (≈ 7.7 µM) | MIC (Enterobacter cloacae; read-out: Minimum Inhibitory Concentration, Enterobacter cloacae strain 1, A, Inoculum of 10^2 organisms): 1 µg/mL (≈ 1.92 µM) | MIC (Enterobacter cloacae; read-out: Minimum Inhibitory Concentration, Enterobacter cloacae strain 1, B, Inoculum of 10^6 organisms): > 250 µg/mL | MIC (Enterobacter cloacae; read-out: Minimum Inhibitory Concentration, Enterobacter cloacae strain 2, A, Inoculum of 10^2 organisms): 1 µg/mL (≈ 1.92 µM) | MIC (Enterobacter cloacae; read-out: Minimum Inhibitory Concentration, Enterobacter cloacae strain 2, B, Inoculum of 10^6 organisms): > 250 µg/mL | MIC (Enterobacter cloacae; read-out: Minimum Inhibitory Concentration, Enterobacter cloacae strain 3, A, Inoculum of 10^2 organisms): 2 µg/mL (≈ 3.85 µM) | MIC (Enterobacter cloacae; read-out: Minimum Inhibitory Concentration, Enterobacter cloacae strain 3, B, Inoculum of 10^6 organisms): > 250 µg/mL | MIC (Enterobacter cloacae; read-out: Minimum Inhibitory Concentration, Enterobacter cloacae strain 4, A, Inoculum of 10^2 organisms): 2 µg/mL (≈ 3.85 µM) | MIC (Enterobacter cloacae; read-out: Minimum Inhibitory Concentration, Enterobacter cloacae strain 4, B, Inoculum of 10^6 organisms): > 250 µg/mL | MIC (Enterobacter cloacae; read-out: Minimum Inhibitory Concentration, Enterobacter cloacae strain 5, A, Inoculum of 10^2 organisms): 8 µg/mL (≈ 15.4 µM) | MIC (Enterobacter cloacae; read-out: Minimum Inhibitory Concentration, Enterobacter cloacae strain 5, B, Inoculum of 10^6 organisms): 250 µg/mL (≈ 481 µM) | MIC (Edwardsiella tarda): 0.13 µg/mL (≈ 0.25 µM)
